Results from paper PMC10058310 (Science Advances, 2023).
pIC50: −log10 of the molar value.

Tests used:
[1] = test system: recombinant SARS2 encoding A173V M^pro; type: cell-based, SARS-CoV-2; conditions: read-out: IC50 (95% CI)
[2] = test system: recombinant SARS2 encoding ∆P168/A173V M^pro; type: cell-based, SARS-CoV-2; conditions: read-out: IC50 (95% CI)
SARS2 M^pro P168G = conditions: cited from earlier work
[3] = test system: recombinant SARS2 encoding ∆P168 M^pro; assay: microbe, parasite or virus in culture; type: cell-based; conditions: […], A549-hACE2 cells
SARS2 M^pro P168S [4] = target: T1, SARS2 M^pro P168S (Severe acute respiratory syndrome coronavirus 2, UniProt P0DTD1, P3431S); type: cell-based, SARS-CoV-2
SARS2 M^pro M49I = SARS2 M^pro M49I (Severe acute respiratory syndrome coronavirus 2, UniProt P0DTD1, M3312I); conditions: cited from earlier work
SARS2 M^pro P168S [5] = target: T1, SARS2 M^pro P168S; conditions: cited from earlier work

Compound | pIC50 [1] | pIC50 [2] | effect of amino acid change on inhibitor susceptibility (SARS2 M^pro P168G) | further results
Cn1cnc(Cn2c(=O)[nH]/c(=N\c3cc4cn(C)nc4cc3Cl)n(Cc3cc(F)c(F)cc3F)c2=O)n1 [Ensitrelvir, ensitrelvir] | 8.11 | 8.48 | – | –
CC(C)C[C@H](NC(=O)OCc1ccccc1)C(=O)N[C@@H](C[C@@H]1CCNC1=O)C(O)S(=O)(=O)[O-].[Na+] (stereo partly drawn) [GC376] | – | – | no effect | –
CC(C)(C)[C@H](NC(=O)C(F)(F)F)C(=O)N1C[C@H]2[C@@H]([C@H]1C(=O)N[C@H](C#N)C[C@@H]1CCNC1=O)C2(C)C [Nirmatrelvir, nirmatrelvir] | 7.44 | – | – | –
CCC(CC)COC(=O)[C@H](C)N[P@](=O)(OC[C@H]1O[C@@](C#N)(c2ccc3c(N)ncnn23)[C@H](O)[C@@H]1O)Oc1ccccc1 [Remdesivir, remdesivir] | 5.89 | 5.82 | – | Fold change in antiviral EC50 [3]: 0.9 fold; Fold change in antiviral EC50 ([3]; listed as remdesivir): none of the mutants alter susceptibility
CC(C)(C)NC(=O)N[C@H](C(=O)N1C[C@H]2[C@@H]([C@H]1C(=O)NC(CC1CCC1)C(=O)C(N)=O)C2(C)C)C(C)(C)C (stereo partly drawn) [boceprevir] | – | – | improve susceptibility | fold increase in susceptibility (SARS2 M^pro P168S [4]): 5.5 fold; effect of substitution on inhibitor susceptibility (SARS2 M^pro M49I): little effect; effect of amino acid change on inhibitor susceptibility (SARS2 M^pro P168S [5]): improve susceptibility
